As usually defined, the IC50 is the concentration that gives 50% inhibition. Usually solubility stands for the concentration that dissolves in the medium under given conditions. A higher solubility goes with much dissolved substance.

Data on ten compounds can be found in ChEMBL document CHEMBL5390322, “Discovery of 5-Azaquinoxaline Derivatives as Potent and Orally Bioavailable Allosteric SHP2 Inhibitors” (ACS Med Chem Lett, 2023).

Converted amounts (≈) assume the structure as drawn. Where only a bound is given, the exact number is not on record here.

Tested on in one data set: not listed separately
Briefly: Metabolic stability in human liver microsome assessed as intrinsic clearance at […] preincubated for 5 mins followed by NADPH addition and measured after 20 mins by LC-MS analysis. It is filed as ADME. Conditions: liver microsomes, dose 2.5 µM, time 25 min, read-out: CLH.
For `CC1(N)CCN(c2cnc3nc(Oc4cccc(Cl)c4Cl)ccc3n2)CC1`, the CLint scaled at […] is 4 mL/min/kg.
As to `Nc1nccc(Sc2ccc3nc(N4CCC5(CC4)Cc4ccccc4[C@H]5N)cnc3n2)c1Cl`, the CLint scaled at […] came to 8 mL/min/kg.

For another data set, the target named is T1, Tyrosine-protein phosphatase non-receptor type 11 (Homo sapiens, UniProt Q06124).
T1 sequence (Q06124 whole entry): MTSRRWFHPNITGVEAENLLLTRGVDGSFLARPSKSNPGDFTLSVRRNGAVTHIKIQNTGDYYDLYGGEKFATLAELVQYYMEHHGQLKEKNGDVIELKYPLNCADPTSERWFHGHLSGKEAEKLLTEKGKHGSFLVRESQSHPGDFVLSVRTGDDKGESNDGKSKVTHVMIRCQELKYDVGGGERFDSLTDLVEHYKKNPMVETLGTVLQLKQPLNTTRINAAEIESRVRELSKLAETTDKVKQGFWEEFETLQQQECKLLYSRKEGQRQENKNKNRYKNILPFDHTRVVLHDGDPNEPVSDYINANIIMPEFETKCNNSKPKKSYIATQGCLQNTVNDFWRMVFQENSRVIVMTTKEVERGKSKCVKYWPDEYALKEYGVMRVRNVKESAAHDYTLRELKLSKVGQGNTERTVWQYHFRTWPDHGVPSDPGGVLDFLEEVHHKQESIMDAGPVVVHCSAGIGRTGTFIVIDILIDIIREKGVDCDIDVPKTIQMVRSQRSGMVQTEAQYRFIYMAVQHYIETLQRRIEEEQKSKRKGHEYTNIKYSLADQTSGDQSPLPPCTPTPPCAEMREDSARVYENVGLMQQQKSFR
The experiment in a line: Allosteric inhibition of recombinant full length 6His-tagged SHP2 (2 to 527 residues) (unknown origin) expressed in Escherichia coli using DiFMUP as substrate incubated for 15 mins by microplate reader analysis.
Conditions: not given
In the case of `CC1(N)CCN(c2cnc3nc(-c4cccc(F)c4Cl)ccc3n2)CC1`, the IC50 was determined as 344 nM.
As to `CC1(N)CCN(c2ccc(Sc3cccc(Cl)c3Cl)n3nccc23)CC1`, the IC50 worked out at 3690 nM.
For the compound `CC1(N)CCN(c2cnc3c(cnn3-c3cccc(Cl)c3Cl)n2)CC1`, the half-maximal inhibitory concentration (IC50) amounted to 1930 nM.
In the case of `CC1(N)CCN(c2ncc(Sc3cccc(Cl)c3Cl)n3nccc23)CC1`, the IC50 was 208 nM.
For the compound `CC1(N)CCN(c2cnc3c(Sc4cccc(Cl)c4Cl)cnn3c2)CC1`, the IC50 stood at 634 nM.
Turning to `CC1(N)CCN(c2cnc3nc(Sc4cccc(Cl)c4Cl)ccc3n2)CC1`, the IC50 was determined as 47 nM.
In the case of `CC1(N)CCN(c2ccnc3c(Sc4cccc(Cl)c4Cl)cnn23)CC1`, the IC50 was determined as 530 nM.
As to `Nc1nccc(Sc2ccc3nc(N4CCC5(CC4)Cc4cc(Cl)ccc4[C@H]5N)cnc3n2)c1Cl`, the IC50 worked out at 35 nM.

Tested on in the next data set: not listed separately
The experiment in a line: Metabolic stability in human hepatocyte assessed as intrinsic clearance incubated for 1 to 2 hrs by LC-MS analysis. Conditions: hepatocytes, time 1-2 hrs, read-out: CLH. The class given is ADME, cell-based.
Turning to `CC1(N)CCN(c2cnc3nc(Oc4cccc(Cl)c4Cl)ccc3n2)CC1`, the CLint scaled at 10000 µM came out at 2 mL/min/kg.
As for `Nc1nccc(Sc2ccc3nc(N4CCC5(CC4)Cc4ccccc4[C@H]5N)cnc3n2)c1Cl`, the CLint scaled at 10000 µM amounted to 10 mL/min/kg.

Tested on in a further data set: not listed separately
The experiment in a line: Solubility of the compound in FaSSIF at 1 mg/ml incubated for 24 hrs by LC-MS/MS analysis. The class given is physicochemical.
Conditions: not given
Compound `Nc1nccc(Sc2ccc3nc(N4CCC5(CC4)Cc4cc(Cl)ccc4[C@H]5N)cnc3n2)c1Cl` displayed a solubility at 24 h of 24 µg/mL (≈ 45.8 µM).
On to `Nc1nccc(Sc2ccc3nc(N4CCC5(CC4)Cc4ccccc4[C@H]5N)cnc3n2)c1Cl`, for which the solubility at 24 h came out at 60 µg/mL (≈ 122 µM).

Tested on in a further data set: not listed separately
The experiment in a line: Metabolic stability in mouse liver microsome assessed as intrinsic clearance at […] preincubated for 5 mins followed by NADPH addition and measured after 20 mins by LC-MS analysis. The class given is ADME. To be noted: liver microsomes, dose 2.5 µM, time 25 min, read-out: CLH. On the technique in general: Liver microsomes are a subcellular fraction often used to study metabolism.
As to `CC1(N)CCN(c2cnc3nc(Oc4cccc(Cl)c4Cl)ccc3n2)CC1`, the CLint scaled at […] was determined as 18 mL/min/kg.
For `Nc1nccc(Sc2ccc3nc(N4CCC5(CC4)Cc4ccccc4[C@H]5N)cnc3n2)c1Cl`, the CLint scaled at […] worked out at 19 mL/min/kg.

Tested on in the next data set: not listed separately
Briefly: Metabolic stability in mouse hepatocyte assessed as intrinsic clearance incubated for 1 to 2 hrs by LC-MS analysis. The class given is ADME, cell-based. To be noted: hepatocytes, time 1-2 hrs, read-out: CLH.
On to `CC1(N)CCN(c2cnc3nc(Oc4cccc(Cl)c4Cl)ccc3n2)CC1`, for which the CLint scaled was 10 mL/min/kg.
Still for that read-out and setting: for `Nc1nccc(Sc2ccc3nc(N4CCC5(CC4)Cc4ccccc4[C@H]5N)cnc3n2)c1Cl` the value was 34 mL/min/kg.

The target of the next data set is Mitogen-activated protein kinase; ERK1/ERK2 (Homo sapiens, UniProt P27361+P28482). Briefly: Inhibition of ERK1/2 phosphorylation at Thr202/Tyr204 residues in human KYSE520 cells incubated for 1 hrs by Western blot analysis. It is filed as cell-based.
Conditions: not given
Background: A western blot detects proteins with antibodies after separation by electrophoresis.
Consider `CC1(N)CCN(c2cnc3nc(-c4cccc(F)c4Cl)ccc3n2)CC1`, for which the IC50 is 1184 nM.
In turn, `CC1(N)CCN(c2ccc(Sc3cccc(Cl)c3Cl)n3nccc23)CC1` returned an IC50 of over 20000 nM.
In turn, `CC1(N)CCN(c2cnc3c(cnn3-c3cccc(Cl)c3Cl)n2)CC1` had a concentration for half-maximal inhibition (IC50) of 1951 nM.
For `CC1(N)CCN(c2ncc(Sc3cccc(Cl)c3Cl)n3nccc23)CC1`, the 50% inhibitory concentration (IC50) is 2785 nM.
`CC1(N)CCN(c2cnc3c(Sc4cccc(Cl)c4Cl)cnn3c2)CC1` registered an IC50 of over 20000 nM.
On the same count and under the same terms, for `CC1(N)CCN(c2cnc3nc(Sc4cccc(Cl)c4Cl)ccc3n2)CC1` the value was 1068 nM.
Consider `CC1(N)CCN(c2ccnc3c(Sc4cccc(Cl)c4Cl)cnn23)CC1`, for which the IC50 is on record as over 20000 nM.
For `Nc1nccc(Sc2ccc3nc(N4CCC5(CC4)Cc4cc(Cl)ccc4[C@H]5N)cnc3n2)c1Cl`, the IC50 amounted to 78 nM.
With `CC1(N)CCN(c2cnc3nc(Oc4cccc(Cl)c4Cl)ccc3n2)CC1`, the IC50 stood at 767 nM.
The compound `Nc1nccc(Sc2ccc3nc(N4CCC5(CC4)Cc4ccccc4[C@H]5N)cnc3n2)c1Cl` registered an IC50 of 8 nM.

Tested on in another data set: not listed separately
The experiment in a line: Permeability of compound from apical to basolateral side in LLC-PK1 cells incubated for 2 hrs by LC-MS/MS analysis. The class given is ADME, cell-based, Sus scrofa. Conditions: pig, read-out: permeability.
With `CC1(N)CCN(c2cnc3nc(-c4cccc(F)c4Cl)ccc3n2)CC1`, the Papp A→B at 2 h was determined as 19 ×10⁻⁶ cm/s.
Consider `CC1(N)CCN(c2cnc3nc(Oc4cccc(Cl)c4Cl)ccc3n2)CC1`, for which the Papp A→B at 2 h amounted to 11 ×10⁻⁶ cm/s.
As for `Nc1nccc(Sc2ccc3nc(N4CCC5(CC4)Cc4ccccc4[C@H]5N)cnc3n2)c1Cl`, the Papp A→B at 2 h stood at 1 ×10⁻⁶ cm/s.
